Positions of bridges follow the written chain, without caps; N, C: chain ends. Residues, ends and D or L forms follow the SMILES beside them.
Biological target: T1, amylin receptor, AMY1, a CT (calcitonin) receptor/RAMP1 (receptor-activity modifying protein) complex (Homo sapiens, UniProt O60894+P30988)
T1 construct: host or cells: CHO-K1/AMY1/Gα15
Assay: Calcium flux assay (FLIPR Calcium 4) of inhibition of α-CGRP stimulation in CHO-K1/AMY1/Gα15 cells
Type: cell-based
Conditions: at maximal test concentration (series starts with 1 μM); CHO-K1/AMY1/Gα15 cells stimulated with 32 nM (EC80) α-CGRP; n = 2; read-out: % Inhibition @ Maximal concentration (Mean +/− SD, n = 2)
Experimental: Using a calcium flux assay, the dose-dependent inhibitory response of peptide antagonists of the present invention on an amylin receptor, AMY1, a CT (calcitonin) receptor/RAMP1 (receptor-activity modifying protein) complex was determined. The recombinant cell line CHO-K1/AMY1/Gα15 (GenScript, Piscataway, N.J., Catalog No. M00475) was employed in the assay. Peptide antagonist activities were tested, in duplicate, at five different concentrations, starting with 1 μM and serially diluted five-fold, in DMSO. AC187 (SEQ ID NO: 55), a known amylin receptor antagonist (available for example from Tocris Bioscience, Minneapolis, Minn., Catalog No. 3419) was used as a positive control in the assays, and human α-CGRP, a known amylin receptor agonist (SEQ ID NO:56) , (available for example from Tocris Bioscience, Minneapolis, Minn., Catalog No. 3012) was used as a positive control in the assays. The FLIPR® Calcium 4 Assay Kit (Molecular Devices, Sunnyvale, Calif.) was used.
Human α-CGRP having the amino acid sequence, NH2-[…]-NH2 (SEQ ID NO:56) and AC187 having the sequence […] (SEQ ID NO: 55) were employed as negative and positive controls, respectively. Stock solutions were further diluted in HBSS-HEPES buffer to make 5×final control solutions.
CHO-K1/AMY1/Gα15 cells were seeded in a 384-well black wall, clear bottom plate at a density of 20,000 cells/well in 20 μL of growth medium 20 hours prior to the day of the experiment and maintained at 37° C./5% CO2.
Per the assay kit protocol, dye-loading solution (at 2×final concentration) was added into the assay plate, 20 μL per well. Compound solution (at 5 ×final concentration) was added into the assay plate, 10 uL per well. The assay plate was placed into a 37° C. incubator for 1 hour, then left for 15 min at RT. The agonist plate (at 5×EC80 concentration) was placed in Source 2. The total reading time was 120 sec. The agonist was added after 20 seconds reading of the baseline and the fluorescence signal was captured for another 100 seconds (21 s to 120 s).
In screening, cells stimulated with assay buffer were chosen as the background; cells stimulated with agonist (at […] concentration) were chosen as the negative control.
Data were recorded by ScreenWorks (version 3.1) as FMD files and stored on the GenScript computer network for off-line analysis. Data acquisition and analyses was performed using ScreenWorks (version 3.1) program and exported to Excel. The average value of 20 (1 s to 20 s) seconds reading was calculated as the baseline reading and the relative fluorescent units (ΔRFU) intensity values were calculated with the maximal fluorescent units (21 s to 120 s) subtracting the average value of baseline reading.
The IC50 value of AC187 was 8 μM. The inhibitory activity of the tested peptide antagonists was normalized with the negative control (AC187) and reported as % Inhibition, calculated from the following equation: % Inhibition=(ΔRFUcompound−ΔRFUBackground)/(ΔRFUNegative control−ΔRFUBackground) * 100% Inhibition was then plotted along the Y-axis, with the test concentrations as indicated on the X-axis. The peptides were tested at indicated concentrations and stimulated with 32 nM (EC80) α-CGRP (Mean +/− SD, n=2).

T1 sequence (P30988 25-474): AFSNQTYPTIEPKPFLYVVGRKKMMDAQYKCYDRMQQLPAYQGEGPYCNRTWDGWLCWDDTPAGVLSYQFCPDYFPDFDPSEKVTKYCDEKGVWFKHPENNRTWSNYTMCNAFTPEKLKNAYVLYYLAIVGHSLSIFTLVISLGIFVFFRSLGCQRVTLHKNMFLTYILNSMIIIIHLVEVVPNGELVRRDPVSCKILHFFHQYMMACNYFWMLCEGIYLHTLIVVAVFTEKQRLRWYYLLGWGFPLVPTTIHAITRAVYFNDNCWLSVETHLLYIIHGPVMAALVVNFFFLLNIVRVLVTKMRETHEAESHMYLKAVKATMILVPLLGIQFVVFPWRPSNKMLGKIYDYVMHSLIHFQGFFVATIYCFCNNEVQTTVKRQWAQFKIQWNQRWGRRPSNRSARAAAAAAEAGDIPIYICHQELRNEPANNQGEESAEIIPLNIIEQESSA
T1 sequence (O60894 27-148): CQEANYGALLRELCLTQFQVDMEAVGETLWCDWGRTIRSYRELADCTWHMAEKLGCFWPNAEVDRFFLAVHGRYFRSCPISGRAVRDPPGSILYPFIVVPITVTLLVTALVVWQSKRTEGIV

Structure (SMILES)	inhibition at 1 µM
CC(C)C[C@H](NC(=O)[C@H](CCCNC(=N)N)NC(=O)CNC(=O)[C@H](CC(C)C)NC(=O)[C@@H](NC(=O)[C@@H]1CSSC[C@H](NC(=O)[C@H](C)N)C(=O)N[C@@H](C(C)C)C(=O)N[C@@H](CC(C)C)C(=O)NCC(=O)N[C@@H](C)C(=O)N1)C(C)C)C(=O)N[C@@H](CO)C(=O)N[C@@H](CCC(N)=O)C(=O)N[C@@H](CCC(=O)O)C(=O)N[C@@H](CC(C)C)C(=O)N[C@@H](Cc1c[nH]cn1)C(=O)N[C@@H](CCCNC(=N)N)C(=O)N[C@@H](CC(C)C)C(=O)N[C@@H](CCC(N)=O)C(=O)N[C@H](C(=O)N[C@@H](Cc1ccc(O)cc1)C(=O)N1CCC[C@H]1C(=O)N[C@@H](CCCNC(=N)N)C(=O)N[C@H](C(=O)N[C@@H](CC(N)=O)C(=O)N[C@H](C(=O)NCC(=O)N[C@@H](CO)C(=O)N[C@@H](CCCCN)C(=O)N[C@@H](C)C(=O)N[C@@H](Cc1ccccc1)C(N)=O)C(C)C)[C@@H](C)O)[C@@H](C)O [compound 5] (H-ACVLGACVLGRLSQELHRLQTYPRTNVGSKAF-NH2; disulfide 2-7 (inferred))	88.5%
CC(C)C[C@H](NC(=O)[C@H](CCCNC(=N)N)NC(=O)CNC(=O)[C@H](CC(C)C)NC(=O)[C@@H](NC(=O)[C@@H]1CSSC[C@H](NC(=O)[C@H](C)N)C(=O)N[C@@H](CC(=O)O)C(=O)N[C@@H]([C@@H](C)O)C(=O)N[C@@H](C)C(=O)N[C@@H](C(C)C)C(=O)N1)C(C)C)C(=O)N[C@@H](CO)C(=O)N[C@@H](CCC(N)=O)C(=O)N[C@@H](CCC(=O)O)C(=O)N[C@@H](CC(C)C)C(=O)N[C@@H](Cc1c[nH]cn1)C(=O)N[C@@H](CCCNC(=N)N)C(=O)N[C@@H](CC(C)C)C(=O)N[C@@H](CCC(N)=O)C(=O)N[C@H](C(=O)N[C@@H](Cc1ccc(O)cc1)C(=O)N1CCC[C@H]1C(=O)N[C@@H](CCCNC(=N)N)C(=O)N[C@H](C(=O)N[C@@H](CC(N)=O)C(=O)N[C@H](C(=O)NCC(=O)N[C@@H](CO)C(=O)N[C@@H](CCCCN)C(=O)N[C@@H](C)C(=O)N[C@@H](Cc1ccccc1)C(N)=O)C(C)C)[C@@H](C)O)[C@@H](C)O [compound 3] (H-ACDTAVCVLGRLSQELHRLQTYPRTNVGSKAF-NH2; disulfide 2-7 (inferred))	95.9%
CC(C)C[C@H](NC(=O)[C@H](CCCNC(=N)N)NC(=O)CNC(=O)[C@H](CC(C)C)NC(=O)[C@@H](NC(=O)[C@@H]1CSSC[C@H](NC(=O)[C@H](C)N)C(=O)N[C@@H](CC(N)=O)C(=O)N[C@@H]([C@@H](C)O)C(=O)N[C@@H](C)C(=O)N[C@@H](C)C(=O)N1)C(C)C)C(=O)N[C@@H](CO)C(=O)N[C@@H](CCC(N)=O)C(=O)N[C@@H](CCC(=O)O)C(=O)N[C@@H](CC(C)C)C(=O)N[C@@H](Cc1c[nH]cn1)C(=O)N[C@@H](CCCNC(=N)N)C(=O)N[C@@H](CC(C)C)C(=O)N[C@@H](CCC(N)=O)C(=O)N[C@H](C(=O)N[C@@H](Cc1ccc(O)cc1)C(=O)N1CCC[C@H]1C(=O)N[C@@H](CCCNC(=N)N)C(=O)N[C@H](C(=O)N[C@@H](CC(N)=O)C(=O)N[C@H](C(=O)NCC(=O)N[C@@H](CO)C(=O)N[C@@H](CCCCN)C(=O)N[C@@H](C)C(=O)N[C@@H](Cc1ccccc1)C(N)=O)C(C)C)[C@@H](C)O)[C@@H](C)O [compound 4] (H-ACNTAACVLGRLSQELHRLQTYPRTNVGSKAF-NH2; disulfide 2-7 (inferred))	94.6%
CC(C)C[C@H](NC(=O)[C@H](CCCNC(=N)N)NC(=O)CNC(=O)[C@H](CC(C)C)NC(=O)[C@@H](NC(=O)[C@@H]1CSSC[C@H](NC(=O)[C@H](C)N)C(=O)N[C@@H](CC(N)=O)C(=O)N[C@@H](CC(C)C)C(=O)N[C@@H](CO)C(=O)N[C@@H](C)C(=O)N1)C(C)C)C(=O)N[C@@H](CO)C(=O)N[C@@H](CCC(N)=O)C(=O)N[C@@H](CCC(=O)O)C(=O)N[C@@H](CC(C)C)C(=O)N[C@@H](Cc1c[nH]cn1)C(=O)N[C@@H](CCCNC(=N)N)C(=O)N[C@@H](CC(C)C)C(=O)N[C@@H](CCC(N)=O)C(=O)N[C@H](C(=O)N[C@@H](Cc1ccc(O)cc1)C(=O)N1CCC[C@H]1C(=O)N[C@H](C(=O)N[C@@H](CC(N)=O)C(=O)N[C@H](C(=O)NCC(=O)N[C@@H](CO)C(=O)NCC(=O)N[C@H](C(=O)N1CCC[C@H]1C(N)=O)[C@@H](C)O)[C@@H](C)O)[C@@H](C)O)[C@@H](C)O [compound 13] (H-ACNLSACVLGRLSQELHRLQTYPTNTGSGTP-NH2; disulfide 2-7 (inferred))	95.8%
CC(C)C[C@H](NC(=O)[C@H](CCCNC(=N)N)NC(=O)CNC(=O)[C@H](CC(C)C)NC(=O)[C@@H](NC(=O)[C@@H]1CSSC[C@H](NC(=O)[C@H](C)N)C(=O)N[C@@H](CC(N)=O)C(=O)N[C@@H](CC(C)C)C(=O)N[C@@H](CO)C(=O)N[C@@H](C(C)C)C(=O)N1)C(C)C)C(=O)N[C@@H](CO)C(=O)N[C@@H](CCC(N)=O)C(=O)N[C@@H](CCC(=O)O)C(=O)N[C@@H](CC(C)C)C(=O)N[C@@H](Cc1c[nH]cn1)C(=O)N[C@@H](CCCNC(=N)N)C(=O)N[C@@H](CC(C)C)C(=O)N[C@@H](CCC(N)=O)C(=O)N[C@H](C(=O)N[C@@H](Cc1ccc(O)cc1)C(=O)N1CCC[C@H]1C(=O)N[C@@H](CCCNC(=N)N)C(=O)N[C@H](C(=O)N[C@@H](CC(N)=O)C(=O)N[C@H](C(=O)NCC(=O)N[C@@H](CO)C(=O)N[C@@H](CCCCN)C(=O)N[C@@H](C)C(=O)N[C@@H](Cc1ccccc1)C(N)=O)C(C)C)[C@@H](C)O)[C@@H](C)O [compound 11] (H-ACNLSVCVLGRLSQELHRLQTYPRTNVGSKAF-NH2; disulfide 2-7 (inferred))	96.5%
CC(C)C[C@H](NC(=O)[C@H](CCCNC(=N)N)NC(=O)CNC(=O)[C@H](CC(C)C)NC(=O)[C@@H](NC(=O)[C@@H]1CSSC[C@H](N)C(=O)N[C@@H](CO)C(=O)N[C@@H](CC(N)=O)C(=O)N[C@@H]([C@@H](C)O)C(=O)N[C@@H](C)C(=O)N[C@@H](C)C(=O)N1)C(C)C)C(=O)N[C@@H](CO)C(=O)N[C@@H](CCC(N)=O)C(=O)N[C@@H](CCC(=O)O)C(=O)N[C@@H](CC(C)C)C(=O)N[C@@H](Cc1c[nH]cn1)C(=O)N[C@@H](CCCNC(=N)N)C(=O)N[C@@H](CC(C)C)C(=O)N[C@@H](CCC(N)=O)C(=O)N[C@H](C(=O)N[C@@H](Cc1ccc(O)cc1)C(=O)N1CCC[C@H]1C(=O)N[C@@H](CCCNC(=N)N)C(=O)N[C@H](C(=O)N[C@@H](CC(N)=O)C(=O)N[C@H](C(=O)NCC(=O)N[C@@H](CO)C(=O)N[C@@H](CCCCN)C(=O)N[C@@H](C)C(=O)N[C@@H](Cc1ccccc1)C(N)=O)C(C)C)[C@@H](C)O)[C@@H](C)O [compound 8] (H-CSNTAACVLGRLSQELHRLQTYPRTNVGSKAF-NH2; disulfide 1-7 (inferred))	95.4%
CC(C)C[C@H](NC(=O)[C@H](CCCNC(=N)N)NC(=O)CNC(=O)[C@H](CC(C)C)NC(=O)[C@@H](NC(=O)[C@@H]1CSSC[C@H](NC(=O)[C@H](C)N)C(=O)N[C@@H](CC(=O)O)C(=O)N[C@@H]([C@@H](C)O)C(=O)N[C@@H](C)C(=O)N[C@@H](CO)C(=O)N1)C(C)C)C(=O)N[C@@H](CO)C(=O)N[C@@H](CCC(N)=O)C(=O)N[C@@H](CCC(=O)O)C(=O)N[C@@H](CC(C)C)C(=O)N[C@@H](Cc1c[nH]cn1)C(=O)N[C@@H](CCCNC(=N)N)C(=O)N[C@@H](CC(C)C)C(=O)N[C@@H](CCC(N)=O)C(=O)N[C@H](C(=O)N[C@@H](Cc1ccc(O)cc1)C(=O)N1CCC[C@H]1C(=O)N[C@@H](CCCNC(=N)N)C(=O)N[C@H](C(=O)N[C@@H](CC(N)=O)C(=O)N[C@H](C(=O)NCC(=O)N[C@@H](CO)C(=O)N[C@@H](CCCCN)C(=O)N[C@@H](C)C(=O)N[C@@H](Cc1ccccc1)C(N)=O)C(C)C)[C@@H](C)O)[C@@H](C)O [compound 2] (H-ACDTASCVLGRLSQELHRLQTYPRTNVGSKAF-NH2; disulfide 2-7 (inferred))	96.5%
